Measured values as given in ChEMBL document CHEMBL1201862, “PubChem BioAssay data set” (2004).
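Values below derive from 48-hour exposures of cells grown in 96-well plates, with endpoints linearly interpolated between the two concentrations bracketing the appropriate inhibition level. Abbreviation: GI50, concentration required for 50% inhibition of growth.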 Calls of active or inactive are those of the source. Rule as the data show it: active = GI50 up to about 1.1 µM and inactive = higher.

Columns and labels:
Experiment in all cases: NCI anticancer screen, dose series, 48 h
[1] = tested on: SN12C
[2] = tested on: PC-3
[3] = tested on: RPMI-8226
[4] = tested on: LOX IMVI
[5] = tested on: HOP-62
[6] = tested on: HCC 2998
[7] = tested on: SF-268
[8] = tested on: COLO 205
[9] = tested on: SK-OV-3
[10] = tested on: NCI-H226
[11] = tested on: KM12
[12] = tested on: TK-10
[13] = tested on: U-251
[14] = tested on: SW-620
[15] = tested on: A549
[16] = tested on: UO-31
[17] = tested on: NCI/ADR-RES
[18] = tested on: OVCAR-3
[19] = tested on: MCF7
[20] = tested on: K562

| SMILES | GI50 [1] | GI50 [2] | GI50 [3] | GI50 [4] | GI50 [5] | GI50 [6] | GI50 [7] | GI50 [8] | GI50 [9] | GI50 [10] | GI50 [11] | GI50 [12] | GI50 [13] | GI50 [14] | GI50 [15] | GI50 [16] | GI50 [17] | GI50 [18] | GI50 [19] | GI50 [20] |
| --- | --- | --- | --- | --- | --- | --- | --- | --- | --- | --- | --- | --- | --- | --- | --- | --- | --- | --- | --- | --- |
| Cc1cc(C)n(-c2nc(C)c(CCO)c(=O)[nH]2)n1 | > 100 µM (inactive) | > 100 µM (inactive) | > 100 µM (inactive) | > 100 µM (inactive) | > 100 µM (inactive) | > 100 µM (inactive) | > 100 µM (inactive) | > 100 µM (inactive) | > 100 µM (inactive) | > 100 µM (inactive) | > 100 µM (inactive) | > 100 µM (inactive) | > 100 µM (inactive) | > 100 µM (inactive) | > 100 µM (inactive) | > 100 µM (inactive) | 52 µM (inactive) | > 100 µM (inactive) | > 100 µM (inactive) | > 100 µM (inactive) |
| CC1OC(OC2C(O[C@H]3CC[C@@]4(C)C(=CC[C@H]5[C@@H]6C[C@@H]7O[C@]8(CC[C@@H](C)CO8)[C@@H](C)[C@@H]7[C@@]6(C)CC[C@@H]54)C3)OC(CO)C(O)C2OC2OC(CO)C(O)C(O)C2O)C(O)C(O)C1O (stereo not given in full) | 8.75 µM (inactive) | 1.87 µM (inactive) | 2.54 µM (inactive) | 2.38 µM (inactive) | 2.22 µM (inactive) | 1.65 µM (inactive) | 1.9 µM (inactive) | 1.73 µM (inactive) | 1.8 µM (inactive) | 2 µM (inactive) | 2.21 µM (inactive) | 1.93 µM (inactive) | 1.89 µM (inactive) | 0.205 µM (active) | 1.81 µM (inactive) | 1.94 µM (inactive) | 2.24 µM (inactive) | 1.08 µM (active) | 2.19 µM (inactive) | 14.4 µM (inactive) |
| O=CCCCCCOCc1ccccc1 | 17.7 µM (inactive) | > 100 µM (inactive) | 25.1 µM (inactive) | 18.3 µM (inactive) | 29.4 µM (inactive) | > 100 µM (inactive) | > 100 µM (inactive) | > 100 µM (inactive) | > 100 µM (inactive) | > 73.6 µM (inactive) | 54.3 µM (inactive) | 99.5 µM (inactive) | 69.5 µM (inactive) | 60.1 µM (inactive) | 43.6 µM (inactive) | > 87.1 µM (inactive) | > 55.8 µM (inactive) | > 74 µM (inactive) | 54.8 µM (inactive) | 9.98 µM (inactive) |
| COC(O)C(=O)c1c2c(cc3c1CCC3)CCC2 (stereo not given) | > 100 µM (inactive) | > 100 µM (inactive) | 55.1 µM (inactive) | > 100 µM (inactive) | > 100 µM (inactive) | > 100 µM (inactive) | > 100 µM (inactive) | > 100 µM (inactive) | > 100 µM (inactive) | > 100 µM (inactive) | 70.1 µM (inactive) | > 100 µM (inactive) | > 100 µM (inactive) | > 100 µM (inactive) | > 100 µM (inactive) | > 100 µM (inactive) | > 100 µM (inactive) | > 100 µM (inactive) | > 100 µM (inactive) | 80.9 µM (inactive) |
| c1ccc(-c2nnc(SCc3c[nH]c4ccccc34)n2-c2ccccc2)cc1 | 68.4 µM (inactive) | 21.4 µM (inactive) | > 100 µM (inactive) | 34.9 µM (inactive) | 19 µM (inactive) | 27.4 µM (inactive) | 38.2 µM (inactive) | > 100 µM (inactive) | 32.4 µM (inactive) | 22.7 µM (inactive) | 65.3 µM (inactive) | 22.2 µM (inactive) | 24.2 µM (inactive) | 85.1 µM (inactive) | 34.4 µM (inactive) | > 100 µM (inactive) | 22.6 µM (inactive) | 40.8 µM (inactive) | 42.3 µM (inactive) | 47.5 µM (inactive) |
| CC(N/N=C(\S)N1CCCCCC1)c1cccnn1 (stereo not given) | 0.484 µM (active) | 0.104 µM (active) | 0.155 µM (active) | 0.304 µM (active) | 0.374 µM (active) | 2.45 µM (inactive) | 0.337 µM (active) | 0.146 µM (active) | 0.409 µM (active) | 0.618 µM (active) | 0.525 µM (active) | 0.706 µM (active) | 0.326 µM (active) | 0.147 µM (active) | 0.301 µM (active) | 0.526 µM (active) | 0.409 µM (active) | 0.192 µM (active) | 0.258 µM (active) | 0.2 µM (active) |
| CN(C)CCNc1nc(-c2ccc3ccccc3c2)nc2[nH]cnc12 | 11.1 µM (inactive) | 4.76 µM (inactive) | 22.2 µM (inactive) | 4.55 µM (inactive) | 10.9 µM (inactive) | 1.99 µM (inactive) | 8.22 µM (inactive) | 7.55 µM (inactive) | 7.48 µM (inactive) | 2.59 µM (inactive) | 4.8 µM (inactive) | 6.38 µM (inactive) | 13.1 µM (inactive) | 11.4 µM (inactive) | 12.5 µM (inactive) | 3.03 µM (inactive) | 7.33 µM (inactive) | 7.64 µM (inactive) | 7.33 µM (inactive) | 21.1 µM (inactive) |
| N#C/C(=C\Nc1ccccn1)C(=O)C1CC1 | > 100 µM (inactive) | > 100 µM (inactive) | > 100 µM (inactive) | > 100 µM (inactive) | > 100 µM (inactive) | > 100 µM (inactive) | > 100 µM (inactive) | > 100 µM (inactive) | > 100 µM (inactive) | > 100 µM (inactive) | > 100 µM (inactive) | > 100 µM (inactive) | > 100 µM (inactive) | > 100 µM (inactive) | > 100 µM (inactive) | > 100 µM (inactive) | > 100 µM (inactive) | > 100 µM (inactive) | > 100 µM (inactive) | > 100 µM (inactive) |
| O[C@@H]1C[C@@H]2N[C@@](O)(C[C@@H]2O)[C@H]1O | > 100 µM (inactive) | > 100 µM (inactive) | > 100 µM (inactive) | > 100 µM (inactive) | > 100 µM (inactive) | > 100 µM (inactive) | > 100 µM (inactive) | > 100 µM (inactive) | > 100 µM (inactive) | > 100 µM (inactive) | > 100 µM (inactive) | > 100 µM (inactive) | > 100 µM (inactive) | > 100 µM (inactive) | > 100 µM (inactive) | > 100 µM (inactive) | > 100 µM (inactive) | > 100 µM (inactive) | > 100 µM (inactive) | > 100 µM (inactive) |
| CC1(C)C(CCO)CC1n1cc(I)c(=O)[nH]c1=O (stereo not given) | > 100 µM (inactive) | > 100 µM (inactive) | > 100 µM (inactive) | > 100 µM (inactive) | > 100 µM (inactive) | > 100 µM (inactive) | > 100 µM (inactive) | > 100 µM (inactive) | > 100 µM (inactive) | > 100 µM (inactive) | > 100 µM (inactive) | > 100 µM (inactive) | 75.3 µM (inactive) | > 100 µM (inactive) | > 100 µM (inactive) | > 100 µM (inactive) | > 100 µM (inactive) | > 100 µM (inactive) | > 100 µM (inactive) | > 100 µM (inactive) |
| COC1/C=C\OC2(C)Oc3c(C)c(O)c4c(O)c(c(CN(C)C)c(O)c4c3C2=O)NC(=O)/C(C)=C\C=C/C(C)C(O)C(C)C(O)C(C)C(OC(C)=O)C1C (stereo not given) | 25.9 µM (inactive) | 23 µM (inactive) | 6.5 µM (inactive) | 17.6 µM (inactive) | 55.1 µM (inactive) | 20.5 µM (inactive) | 33.3 µM (inactive) | 17.5 µM (inactive) | > 100 µM (inactive) | > 100 µM (inactive) | 33.7 µM (inactive) | 35.3 µM (inactive) | 19.7 µM (inactive) | 12.2 µM (inactive) | 27.4 µM (inactive) | 39 µM (inactive) | > 100 µM (inactive) | 15.4 µM (inactive) | 17.9 µM (inactive) | 22.6 µM (inactive) |
| N#CC1(C#N)C2(c3ccccc3)OC(c3ccccc3)(c3cc4ccccc4cc32)C1(C#N)C#N | 16.6 µM (inactive) | 17.1 µM (inactive) | 1.28 µM (inactive) | 4.91 µM (inactive) | 20.7 µM (inactive) | 18.5 µM (inactive) | 17 µM (inactive) | 6.17 µM (inactive) | 21.1 µM (inactive) | 12.6 µM (inactive) | 7.85 µM (inactive) | 16.2 µM (inactive) | 16.3 µM (inactive) | 2.62 µM (inactive) | 14.7 µM (inactive) | 24 µM (inactive) | 21 µM (inactive) | 13.9 µM (inactive) | 5.38 µM (inactive) | 2.86 µM (inactive) |
| COc1cc(Cn2c(=S)ss/c2=N\C(=S)N(C)C)cc(OC)c1OC | > 50.2 µM (inactive) | 3.35 µM (inactive) | 6.7 µM (inactive) | 4.69 µM (inactive) | 13.3 µM (inactive) | 49.1 µM (inactive) | 8.93 µM (inactive) | 9.33 µM (inactive) | 13.4 µM (inactive) | 24.3 µM (inactive) | 2.64 µM (inactive) | 34.8 µM (inactive) | 4.61 µM (inactive) | 2.81 µM (inactive) | 13.2 µM (inactive) | 24.3 µM (inactive) | 1.61 µM (inactive) | 1.89 µM (inactive) | 3.64 µM (inactive) | 2.59 µM (inactive) |
| O=C(Nc1sccc1S(=O)(=O)c1ccc(Cl)cc1)c1ccc(F)cc1F | 56.8 µM (inactive) | 27.2 µM (inactive) | 62.8 µM (inactive) | > 100 µM (inactive) | 24.9 µM (inactive) | > 100 µM (inactive) | 19.7 µM (inactive) | > 100 µM (inactive) | 21.9 µM (inactive) | 26.7 µM (inactive) | > 100 µM (inactive) | 20.9 µM (inactive) | 19.2 µM (inactive) | 73.1 µM (inactive) | 48.2 µM (inactive) | 22.2 µM (inactive) | 32.3 µM (inactive) | 37.4 µM (inactive) | 40.5 µM (inactive) | 18 µM (inactive) |
